From patent US20090017103A1, “Antisense oligonucleotides for prevention of metastasis formation of cancer cells” (priority 2003, published 2009)

What was measured:
bone sialoprotein II = experiment: Western blot of bone sialoprotein II expression after exposure to ASOs; type: cell-based, human; conditions: for bone sialoprotein II expression in relation to untreated control (100%): 10 μM
osteopontin = experiment: Western blot of osteopontin expression after exposure to ASOs; type: cell-based, human; conditions: for osteopontin expression in relation to untreated control (100%): MDA-MB231, lipofectamine, 10 μM; for reduction of osteopontin expression: MDA-MB-231

| Substance | bone sialoprotein II expression in relation to untreated control (100%) (bone sialoprotein II; MDA-MB231, single exposure, electroporation) | bone sialoprotein II expression in relation to untreated control (100%) (bone sialoprotein II; MDA-MB231, single exposure, lipofectamine) | bone sialoprotein II expression in relation to untreated control (100%) (bone sialoprotein II; MDA-MB231, twofold exposure, lipofectamine) | bone sialoprotein II expression in relation to untreated control (100%) (bone sialoprotein II; MDA-MB231^F (growing without FBS), single exposure, lipofectamine) | bone sialoprotein II expression in relation to untreated control (100%) (bone sialoprotein II; MDA-MB435s, single exposure, lipofectamine) | maximum inhibition of protein expression / suppression of protein level (BSP II) (bone sialoprotein II; MDA-MB-231 cells, Western blot) | reduction of bone sialoprotein expression (bone sialoprotein II; single exposure) | reduction of bone sialoprotein protein level (bone sialoprotein II; twofold exposure) | osteopontin expression in relation to untreated control (100%) (osteopontin; single exposure) | osteopontin expression in relation to untreated control (100%) (osteopontin; twofold exposure) | reduction of osteopontin expression (osteopontin; repeated ASO exposure) | reduction of osteopontin expression (osteopontin; single exposure) | maximum inhibition of protein expression / suppression of protein level (OPN) (osteopontin; MDA-MB-231 cells, Western blot) |
| --- | --- | --- | --- | --- | --- | --- | --- | --- | --- | --- | --- | --- | --- |
| 5′-GCT-TTC-TTC-GTT-TTC-ATT-TC-3′ [ASO-BSPII-6] | 16% | 33% | 15% | 79% | 0% | 75% | 84% | 81% | – | – | – | – | – |
| 5′-CTAACTTAAAAAACAAAAGA-3′ (antisense CTAACTTAAAAAACAAAAGA; all phosphorothioate, sugars by position and methylation of C not given here) [ASO-OPN-4] | – | – | – | – | – | – | – | – | 16% | 23% | 77% | 84% | 85% |
